This note sets out measurements from patent US5389643A, “Aminobenzoic acid derivatives useful for treating gastro-intestinal conditions” (Eisai Co., Ltd., priority 1992, dated 1995).

Where a name gives a salt, the structure may show the parent alone. Read-outs that look alike come from different tables or passages of the source.

The subject of series [1] is rat. Nature of the series: Oral toxicity in rat, one week. It counts as in vivo. Particulars: dose of up to 30 mg/kg.
Series [2] deals with gastric emptying function. Put plainly: Activity for raising gastric emptying function. It counts as in vivo, Fischer male rats. Particulars: oral (5 ml/kg), one hour before test food, versus control rat. How it is done: Activity for raising gastric emptying function
This experiment was made according to the method of Decktot et al. [see Eur. J. Pharmacol., 147, 313-316 (1988)]. Fischer male rats (weight: 160 to 180 g) were fasted for 18 hours before 3 ml of a test food comprising methylcellulose, beef broth, casein, sugar and corn starch was orally administered to each rat. One hour after the administration, the stomach was extirpated from each rat. The gastric emptying ratio was calculated from the weight of the test food remaining in the stomach. The ratio of rise of the gastric emptying function was determined by comparing the gastiric emptying ratio of a medicated rat with that of a control rat which had not administered any test compounds. Each test compound (5 ml/kg) was orally administered one hour before the administration of the test food. BRL 24682 was used as a control in this experiment.

Series [3] deals with contraction of guinea pig ileum induced by electrical field stimulation (acetylcholine release). Nature of the series: Effect of increasing contraction of guinea pig ileum induced by electrical field stimulation. It counts as cell-based. The note with it: electrical field stimulation once per 10 seconds, cumulative addition at intervals of 10 minutes, 37° C., read-out: Min. concn. causing increment of ileal contraction. The procedure: Effect of increasing contraction of guinea pig ileum induced by electrical field stimulation
This experiment was made according to the method of Sanger et al. [see Br. J. Pharmacol., 91, 77-87 (1987)]. The longitudinal muscle of the nonterminal ileum of a guinea pig was separated and vertically suspended in the Krebs-Henseleit solution (37° C.) in a Magnus tube by applying a load of 0.5 g to the end of the muscle. A mixed gas comprising 95% of oxygen and 5% of carbon dioxide was passed through the solution. The contraction of the muscle was isometrically determined. Electrical field stimulation was applied to the muscle by the use of a platinum electrode once per 10 seconds to induce the contraction of the muscle. The contraction was caused through the release of acetylcholine. After the muscle had been stabilized, a solution of a test compound was cumulatively added into the Magnus tube at intervals of 10 minutes. The effect of the test compound is represented by percentage based on the initial contraction. The minimum concentration of each test compound at which an increment was found in the contraction due to the release of acetylcholine is shown in Table 4.

Series [4] concerns the target T1, 2-methylserotonin-induced contraction of the ileum (5-HT3 antagonism) (Cavia porcellus, UniProt O70212).
T1 construct: from tissue; host or cells: isolated nonterminal ileum of male Hartley guinea pig
T1 sequence (O70212 20-490): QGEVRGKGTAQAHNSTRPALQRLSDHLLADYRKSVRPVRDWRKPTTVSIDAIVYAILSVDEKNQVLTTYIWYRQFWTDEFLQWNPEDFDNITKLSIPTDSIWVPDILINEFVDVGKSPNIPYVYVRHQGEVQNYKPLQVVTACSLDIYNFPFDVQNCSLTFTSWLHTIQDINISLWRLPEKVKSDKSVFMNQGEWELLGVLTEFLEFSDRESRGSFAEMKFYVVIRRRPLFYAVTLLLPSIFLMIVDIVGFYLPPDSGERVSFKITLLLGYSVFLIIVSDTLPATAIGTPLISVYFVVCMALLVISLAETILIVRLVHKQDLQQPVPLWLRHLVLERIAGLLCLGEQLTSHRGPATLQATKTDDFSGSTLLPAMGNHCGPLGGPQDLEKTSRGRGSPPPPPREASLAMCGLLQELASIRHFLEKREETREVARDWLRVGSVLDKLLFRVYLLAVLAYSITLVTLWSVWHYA
Nature of the series: Antagonism against 2-methylserotonin-induced contraction or systole of ileum. The format is cell-based, guinea pig (Hartley male). The note with it: test compound added 30 minutes before 2-methylserotonin; nonterminal ileum, 37° C.; read-out: pA2 (converted). The procedure:
Antagonism against 2-methylserotonin-induced contraction or systole of ileum
This experiment was made according to the method of Sanger et al. [see Eur. J. Pharmacol., 159, 113-124 (1989)]. The nonterminal ileum of a Hartley male guinea pig was suspended in the Krebs-Henseleit solution (37° C.) by applying a load of 0.5 g to the end of the ileum and a gaseous mixture comprising 95% of oxygen and 5% of carbon dioxide was passed through the solution. The contraction of the ileum was isometrically determined. After allowing the ileum to stand for one or more hours for stabilization, a solution of a test compound was added to the solution, and after 30 minutes, 2-methylserotonin was noncumulatively added. The pA2 value was calculated from the rightward shift of the dose-response curve of the 2-methylserotonin-induced contraction caused by the test compound according to the method of Rossum et al. [see Arch. Int. Pharmacodyn., 143, 299(1963)]. BRL 24682 was used as a control in this experiment.

Series [5] concerns cisplatin-induced vomiting. Put plainly: Activity against cisplatin-induced vomiting of beagle. It counts as in vivo. Particulars: intravenous, one hour after cisplatin 3 mg/kg, 5-hour observation. How it is done: Activity against cisplatin-induced vomiting of beagle
Beagles weighing 7 to 12 kg were used. 3 mg/kg of cisplatin (a product of Sigma) (1 ml/kg of physiological saline) was administered to each beagle through the vein of its forefoot. One hour after the administration of cisplatin, physiological saline (0.2 ml/kg) was administered to a control group of beagles and a solution of a test compound in physiological saline was administered to a test group of beagles, each through the vein of the other forefoot. The frequency of vomiting observed over a 5-hour period from the administration of cisplatin was recorded and the inhibitory ratio of the test compound was calculated according to the following formula.

The mark [6] stands for this setting: listed as 43 (-)-isomer, hydrochloride.
Where [7] appears, read: listed as 42 (+)-isomer, hydrochloride.

With `C#CCC(C)Oc1cc(N)c(Cl)cc1C(=O)N[C@H]1C[C@H]2CC[C@@H](C1)N2C` (single isomer, unassigned; (-)) [Example 43, (-)-endo-4-Amino-5-chloro-N-(8-methyl-8-azabicyclo[3.2.1]oct-3-yl)-2-{(4-pentyn-2-yl)oxy}benzamide hydrochloride], in series [1], the “toxicity on oral administration for one week” value was “no toxicity was exhibited in a dose of up to 30 mg/kg”. Besides, in series [2] (setting [6]), the “Ratio of rise of gastric emptying function” value amounted to 12.9%. Further, the minimal effective concentration in series [3] (setting [6]) was found to be 0.47 µM.

On to `CC#CC(C)Oc1cc(N)c(Cl)cc1C(=O)N[C@H]1C[C@H]2CC[C@@H](C1)N2C` (single isomer, unassigned; (-)) [Example 4, (-)-endo-4-Amino-5-chloro-N-(8-methyl-8-azabicyclo[3.2.1]oct-3-yl)-2-{(3-pentyn-2-yl)oxy)benzamide hydrochloride], for which, in series [1], the “toxicity on oral administration for one week” value is given as “no toxicity was exhibited in a dose of up to 30 mg/kg”. Besides, the “Ratio of rise of gastric emptying function” value in series [2] came out at 31.1%. In addition, the minimal effective concentration in series [3] (listed as 4 (+)-isomer, hydrochloride) is listed as 0.056 µM. Besides, the Kb in series [4] is 2.69 nM. Besides, the “Inhibitory ratio against cisplatin-induced vomiting” value (shortened to “Inhibitory ratio”) was determined as 37% in series [5] (0.03 mg/kg) and 78% in series [5] (0.1 mg/kg).

For the molecule `C#CCOc1cc(N)c(Cl)cc1C(=O)N[C@H]1C[C@H]2CC[C@@H](C1)N2C` [Example 21, endo-4-Amino-5-chloro-(8-methyl-8-azabicyclo[3.2.1]oct-3-yl)-2-propargyloxybenzamide hydrochloride], the “Ratio of rise of gastric emptying function” value in series [2] is 18.9%. Further, in series [3] (Cavia porcellus, 10 min), the minimal effective concentration came to 0.052 µM. For the same molecule, the Kb in series [4] was 3.47 nM. The “Inhibitory ratio” value in series [5] (0.3 mg/kg) is listed as 100%.

As to `C#CCC(C)Oc1cc(N)c(Cl)cc1C(=O)N[C@H]1C[C@H]2CC[C@@H](C1)N2C` (single isomer, unassigned; (+)) [Example 42, (+)-endo-4-Amino-5-chloro-N-(8-methyl-8-azabicyclo[3.2.1]oct-3-yl)-2-{(4-pentyn-2-yl)oxy}benzamide hydrochloride], the “Ratio of rise of gastric emptying function” value in series [2] (setting [7]) stood at 22.2%. The minimal effective concentration in series [3] (setting [7]) was 0.086 µM. In addition, the Kb in series [4] was 1.2 nM. Besides, the “Inhibitory ratio” value stood at 59% in series [5] (0.03 mg/kg) and 92% in series [5] (0.1 mg/kg).

For `CC(Oc1cc(N)c(Cl)cc1C(=O)N[C@H]1C[C@H]2CC[C@@H](C1)N2C)C1CCCC1` (stereo partly drawn) [Example 32, endo-4-Amino-5-chloro-2-(1-cyclopentylethoxy)-N-(8-methyl-8-azabicyclo[3.2.1]oct-3-yl)benzamide hydrochloride], the “Ratio of rise of gastric emptying function” value in series [2] is 18.3%. For the same molecule, the minimal effective concentration in series [3] (Cavia porcellus, 10 min) was more than 100 µM. Besides, the Kb in series [4] was 0.933 nM.

For the molecule `CC#CC(C)Oc1cc(N)c(Cl)cc1C(=O)N[C@H]1C[C@H]2CC[C@@H](C1)N2C` (stereo partly drawn) [Example 2, endo-4-Amino-5-chloro-N-(8-methyl-8-azabicyclo[3.2.1]oct-3-yl) -2-{(3-pentyn-2-yl)oxy}benzamide hydrochloride], the “Ratio of rise of gastric emptying function” value in series [2] was determined as 24.5%. The minimal effective concentration in series [3] (Cavia porcellus, 10 min) was determined as 0.05 µM. The Kb in series [4] was 2.09 nM.
